This is an account of results in patent EP0407651A2, “Use of 1,3-diisobutyl-8-methylxanthine as a bronchodilator and antiallergy agent” (J. URIACH & CIA. S.A., priority 1989, dated 1991).

For data set [1], the system named is Isolated guinea pig trachea. As to the kind of experiment: Isolated guinea pig trachea relaxation (spontaneous tonus, organ bath). It is filed as cell-based. The note with it: Cavia porcellus; 50% relaxation of spontaneous tonus; relaxation by 1 mcM isoprenaline = 100%; read-out: Guinea pig trachea EC₅₀. The method, then:
This in vitro test was carried out according to the method of Emmerson and Mackay (J. Pharm. Pharmacol. 1979, 31, 798). The trachea was excised from guinea pigs, placed in Krebs Henseleit's solution at 37°C and gassed with 95% O₂ and 5% CO₂. The trachea strip was mounted in an organ bath and attached to a tension transducer preloaded with […]. Test compounds were cumulatively added to the organ bath and concentrations causing 50% relaxation of the spontaneous tonus of the tracheal tissue (EC₅₀) were calculated (Table 1). The relaxation induced by 1 mcM isoprenaline was taken as 100%.

For data set [2], the system named is Histamine-induced bronchospasm in anaesthetized guinea pigs. As to the kind of experiment: Histamine-induced bronchospasm in anaesthetized guinea pigs (Konzett and Rössler). Particulars: histamine 10 mcg/Kg i.v., test compound i.p., maximum inhibitory effect at 10, 30, 60 min. It is filed as in vivo. The method, then:
This test was performed in anaesthetized animals according to the method of Konzett and Rössler (Arch. Exp. Pathol.Pharmacol. 1940, 195, 71). The activity was determined by calculating the dose of the active compound required to produce 50% inhibition of the bronchospasm (ID₅₀) (Table 1). Histamine was given intravenously at 10 mcg/Kg, before and 10, 30 and 60 minutes after intraperitoneal administration of test compounds. Maximum inhibitory effects were taken for calculation of ID₅₀ values.

Data set [3] relates to Histamine aerosol-induced bronchospasm. As to the kind of experiment: Histamine aerosol-induced bronchospasm in conscious guinea pigs (protection from death). The class given is in vivo. Particulars: for Histamine bronchospasm Hist. aerosol PC₅₀ (inhal) / Histamine bronchospasm Hist. aerosol PD₅₀ (oral): conscious guinea pigs; for Histamine bronchospasm Hist. aerosol PC₅₀ (inhal): ethanolic solution nebulized 1 mL/min for 2 min, histamine challenge 3 min later, concentration protecting 50% from lethality; for Histamine bronchospasm Hist. aerosol PD₅₀ (oral): one hour before histamine aerosol (0.2%), dose protecting 50% of animals from death; for Protection from death % / Protection from death n/N: formulation B by inhalation; for Protection from death n/N: survivors versus total number of animals. The method, then: This test is based on the methods of Van P+roosdif-Hartzema (Inter. Ppharmacodynamic 1958, 115, 322) and Loew (J. Pharmac.Exp.Ther. 1945, 83, 120) with slight modifications. Thus, conscious guinea pigs were subjected to inhalation of histamine (0.2% aqueous solution) nebulized by an ultrasonic device (DeVilvis™, Ultra-Neb 99) during 30 seconds in a cylindric plastic chamber of 15 liters of volume, at a rate of 1 mL/min. Test compounds were given orally, one hour before the challenge of histamine, and the dose needed to protect from death 50% of the animals was determined (PD₅₀) (Table 1).
Using the same model, test compounds were also given by inhalation. They were dissolved in ethanol at different concentrations (0.45 mM to 28mM) and aerosolized by the ultrasonic nebulizer mentioned above at a rate of 1 mL/min, during 2 minutes. Three minutes later, the animals were subjected to the challenge of histamine and PC₅₀ values were determined (Table 1). Controls were subjected to inhalation of the vehicle (ethanol). PC₅₀ value is defined as the concentration of test compound in the ethanolic solution that protects 50% of animals from lethality when nebulized as indicated above.
Finally, studies have been made subjecting the animals to inhalation of one or more puffs of 5 mg/mL of 1,3-diisobutyl-8-methylxanthine (UR-6032) solution formulation B (see Example 1). Animals were forced to inhale UR-6032 for 5 minutes into the cylindric plastic chamber before the challenge with ultrasonic nebulized histamine (see above) and protection from death with respect to controls was determined (Table 2).

The subject of data set [4] is rat peritoneal mast cell preparations. Description: Histamine release induced by compound 48/80 in rat mast cell preparations. The note with it: 20 min, 1 mM test compound, compound 48/80 10⁻⁶ M, 37°C, read-out: Histamine release % inhib. at 1 mM. The class given is cell-based. The method, then: Anaesthetized rats were bled by cardiac puncture and then 10 mL of Tyrode's-gel solution (0.1% gelatine in Tyrode's buffer, pH 7.2) containing 50 mcg heparin was injected into the peritoneal cavity. Alter a gentle massage of the abdomen, the peritoneal cell suspension was harvested. Mast cells were suspended in Tyrode's solution (10⁶ cells/mL). Aliquots of 0.2 mL of the mast cell suspension were incubated at 37°C for 20 minutes with 10 mcL of compound 48/80 (10⁻⁶ M final concentration), a potent histamine release inducer. The reaction was stopped by introducing the tubes in a ice-ethanol bath. The cells were sedi-mented by centrifugation and the histamine in the supernatant was determined by the fluorimetric method of May (J. Allergy, 1970, 46, 12). The sedimented pellets were treated with 0.1 N HCl at 100°C to liberate the non-released histamine and to determine it by the same method of May. Test compounds were added to the incubation medium dissolved in Tyrode's buffer at different concentrations (final volume: 1 mL). Control samples contained the same volume of Tyrode's buffer. The histamine release in the control samples was taken as 100%, and the percentage of the histamine release inhibition of test samples was calculated with respect to controls. (Table 3).

For data set [5], the system named is Passive cutaneous anaphylaxis reaction (PCA). As to the kind of experiment: Passive cutaneous anaphylaxis reaction (PCA) in the rat. It is filed as in vivo. Particulars: 30 minutes before egg albumin and Evans' blue challenge. The method, then:
The animals were passively sensitized by intradermal injection of 0.1 mL of five-fold diluted rat reagenic antiserum. Injections were made at 4 locations on the shaved back skin and 48 h later the test drug was administered intraperitoneally. Thirty minutes later, the animals were challenged by intravenous injection of egg albumin and Evans' blue dye. The dermal reaction was measured colorimetrically by the method of Harata (J.Pharm.Pharmac., 1971, 23, 218) as the extent of the blueing reaction at the sensitized intradermal injection site, and the percent inhibition values with respect to controls were calculated (Table 3).

Data set [6] has as its system Egg albumin-induced bronchospasm in sensitized guinea pigs. Description: Egg albumin-induced bronchospasm in sensitized guinea pigs (Konzett and Rössler). The note with it: egg albumin 0.06% w/v, 1 mL/Kg i.v., one minute after test compound. It is filed as in vivo. The method, then: The experimental procedure of Konzett and Rössler was followed (Arch. Exp. Pathol.Pharmacol. 1940, 195, 71). A single intravenous injection of 1 mL/Kg of egg albumin (0.06%, w/v) was given to sensitized animals one minute after intravenous administration of UR-6032 at different concentrations.

A short description of data set [7]: Acute oral toxicity in rats. It is filed as in vivo. The note with it: both sexes rats.

On to `CC(C)Cn1c(=O)n(C)c(=O)c2[nH]cnc21` [IBMX, 1-methyl-3-isobutylxanthine], for which, in data set [1], the EC50 was 1.1 µM. Moreover, the “Histamine bronchospasm Hist. i.v. ID₅₀” value in data set [2] was 2.50 mg/Kg,i.p. Further, the “Histamine bronchospasm Hist. aerosol PC₅₀ (inhal)” value in data set [3] is listed as “^b 15-20 mM”. Moreover, in data set [4], the inhibition at 1000 µM was determined as 37%. Besides, in data set [5], the “PCA % inhibition at 2.5 mg/Kg,i.p.” value is listed as 86%.
On to `Cn1c(=O)c2[nH]cnc2n(C)c1=O` [Theophylline, 1,3-dimethylxanthine], for which, in data set [1], the EC50 amounted to 31 µM. Further, the “Histamine bronchospasm Hist. i.v. ID₅₀” value in data set [2] is listed as 4.90 mg/Kg,i.p. In data set [3], the “Histamine bronchospasm Hist. aerosol PC₅₀ (inhal)” value was found to be 25 mM and the “Histamine bronchospasm Hist. aerosol PD₅₀ (oral)” value is greater than 100 mg/kg. Moreover, the inhibition at 1000 µM in data set [4] was 25%. In addition, in data set [5], the “PCA % inhibition at 2.5 mg/Kg,i.p.” value came to 8%.
As for `Cc1nc2c([nH]1)c(=O)n(CC(C)C)c(=O)n2CC(C)C` [UR-6032, 1,3-diisobutyl-8-methylxanthine], in data set [1], the EC50 came to 0.1 µM. For the same compound, the “Histamine bronchospasm Hist. i.v. ID₅₀” value in data set [2] was 0.36 mg/Kg,i.p. In addition, in data set [3], the “Histamine bronchospasm Hist. aerosol PC₅₀ (inhal)” value is on record as 0.5 mM and the “Histamine bronchospasm Hist. aerosol PD₅₀ (oral)” value came to 1 mg/kg. In addition, in data set [3] (1 puff), the “Protection from death %” value was 80% and the “Protection from death n/N” value is on record as 4/5. Also, in data set [3] (2 puffs), the “Protection from death %” value is listed as 100% and the “Protection from death n/N” value was 3/3. Moreover, in data set [3] (3 puffs), the “Protection from death %” value worked out at 100% and the “Protection from death n/N” value is 3/3. In addition, the “active doses given by inhalation” value in data set [3] (inhalation) was less than 0.5 mg/animal. Further, the inhibition at 1000 µM in data set [4] was 56%. For the same compound, the “Egg albumin bronchospasm ID₅₀” value in data set [6] is listed as 0.5-1 mg/Kg,i.p. The “PCA % inhibition at 2.5 mg/Kg,i.p.” value in data set [5] amounted to 39%. Further, the acute oral toxicity in data set [7] is 50 mg/kg.
